We go through 15 compounds from patent US8802866B2, “Pyridinylimidazolone derivatives for the inhibition of PI3 kinases” (Merck Patent GmbH, priority 2009, dated 2014).

The structures appear in SMILES notation. Some results are limits rather than exact numbers.

In one experiment the target is DNA-PK protein complex (Homo sapiens, UniProt P78527). The experiment can be described thus: Biochemical DNA-PK assay (FlashPlate). The method, then: The kinase assay is carried out in […] microtitre FlashPlates®, coated with streptavidin. […] The reaction is stopped by addition of 50 μl/well of 200 mM EDTA. After incubation for 30 minutes, the liquids are removed at room temperature. Each well is washed three times with 100 μl of 0.9% NaCl solution. Non-specific reaction (blank) is determined using a proprietary kinase inhibitor (10 μM). The radioactivity is measured by means of a Topcount. […] Todd Eary, J. G. Schiro, H. Huang, L. E. Burgess, E. A. Kesicki, and J. Halbrook.

In experiment [1] the test system is PI3K-dependent phosphorylation of PKB at Serin 473 in PC3 cells. The experiment can be described thus: Cellular PI3K assay (P-S473-PKB Luminex assay in PC3 cells). It counts as cell-based. As to conditions: Homo sapiens, PC-3, 0.5 h; PC3 cells, 30 min, serum-free, P-S473-PKB; read-out: IC50 (cell). The method, then:
The cellular assay for determination of the P-S473-PKB level is carried out as a Luminex assay in 96-well format in PC3 cells.
PC3 cells are sown out with 20,000 cells per well in 100 μl medium (45% […]/45% Ham's F12/10% FCS) and incubated on the following day for 30 min with a serial dilution of the test substance (7 concentrations) under serum-free conditions. The cells are subsequently lysed using 90 μl of lysis buffer (20 mM Tris/HCl pH 8.0, 150 mM NaCl, 1% NP40, 10% glycerol, 1% phosphatase inhibitor I, 1% phosphatase inhibitor II, 0.1% protease inhibitor cocktail III, 0.01% benzonase) per well, and the lysates are separated off from insoluble cell constituents by means of centrifugation through a 96-well filter plate (0.65 μm). The lysates are incubated overnight at 4° C. with shaking with Luminex beads to which an anti-total PKB antibody is coupled. The detection is carried out on the following day by addition of a P-S473-PKB antibody and a species-specific PE-labelled secondary antibody. The detection of P-S473-PKB is carried out by measurement in a Luminex100 instrument by determination of 100 events per cavity in a measurement time of 60 sec.

The target in another experiment is PI3Kalpha (Homo sapiens, UniProt P42336). The experiment can be described thus: Biochemical PI3Kalpha assay (neomycin SPA, lipid phosphorylation). As to conditions: human recombinant GST-PI3K. The method, then:
(§1) The efficacy of the compounds according to the invention in the inhibition of PI3K-induced lipid phosphorylation can be investigated in the following binding assay. The assay combines scintillation proximity assay (SPA) technology (Amersham) with the ability of neomycin (a polycationic antibiotic) to bind phospholipids with high affinity and specificity. […] The coating of SPA beads with neomycin allows the detection of phosphorylated lipid substrates after incubation with recombinant PI3K and radioactive ATP in the same well by trapping the radioactive phospholipids by the SPA beads owing to their specific binding to neomycin. […] After incubation at room temperature for 120 minutes with gentle stirring, the reaction was stopped by addition of 200 μl of a solution comprising 250 μg of neomycin-coated PVT-SPA beads, ATP 60 mM and EDTA 6.2 mM in PBS. The assay is incubated at room temperature for a further 60 minutes with gentle stirring in order to enable binding of the phospholipids to the neomycin-SPA beads. After precipitation of the neomycin-coated PVT-SPA beads over 5 minutes at 1500×g, radioactive Ptdlns(3)P is quantified by scintillation counting in a Wallac Micro-Beta™ plate counter.

A further experiment concerns the target PI3Kbeta (Homo sapiens, UniProt P42338). As to the kind of experiment: Biochemical PI3Kbeta assay (neomycin SPA, lipid phosphorylation). Particulars: human recombinant GST-PI3K. The method, then:
as §1

PI3Kalpha, sequence (P42336 whole entry): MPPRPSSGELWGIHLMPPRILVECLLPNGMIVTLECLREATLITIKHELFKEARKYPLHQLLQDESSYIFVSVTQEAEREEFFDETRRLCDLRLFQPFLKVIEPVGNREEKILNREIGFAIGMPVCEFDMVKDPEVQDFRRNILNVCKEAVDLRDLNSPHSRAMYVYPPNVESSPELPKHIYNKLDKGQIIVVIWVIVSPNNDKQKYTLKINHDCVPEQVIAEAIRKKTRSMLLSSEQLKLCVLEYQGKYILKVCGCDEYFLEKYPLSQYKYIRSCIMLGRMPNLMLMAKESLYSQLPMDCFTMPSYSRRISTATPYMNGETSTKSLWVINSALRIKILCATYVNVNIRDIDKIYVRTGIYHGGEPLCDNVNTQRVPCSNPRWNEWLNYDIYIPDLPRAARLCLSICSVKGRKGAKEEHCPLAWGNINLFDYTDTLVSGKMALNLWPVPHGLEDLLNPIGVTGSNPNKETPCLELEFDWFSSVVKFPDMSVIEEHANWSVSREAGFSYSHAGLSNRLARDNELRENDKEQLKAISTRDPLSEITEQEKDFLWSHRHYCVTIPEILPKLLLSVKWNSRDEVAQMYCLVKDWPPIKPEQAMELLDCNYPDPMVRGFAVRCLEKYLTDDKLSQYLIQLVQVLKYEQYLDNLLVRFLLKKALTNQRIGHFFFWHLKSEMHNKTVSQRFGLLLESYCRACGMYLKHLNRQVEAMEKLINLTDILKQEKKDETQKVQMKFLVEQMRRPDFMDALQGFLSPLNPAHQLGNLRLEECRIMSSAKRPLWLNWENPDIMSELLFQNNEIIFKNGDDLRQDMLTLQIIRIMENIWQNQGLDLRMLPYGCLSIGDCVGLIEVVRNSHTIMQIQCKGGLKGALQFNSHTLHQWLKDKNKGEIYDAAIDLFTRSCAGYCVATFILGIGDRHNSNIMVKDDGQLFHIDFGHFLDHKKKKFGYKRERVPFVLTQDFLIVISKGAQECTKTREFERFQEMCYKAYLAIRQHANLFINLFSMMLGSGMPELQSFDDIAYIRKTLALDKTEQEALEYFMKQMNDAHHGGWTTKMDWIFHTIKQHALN
PI3Kalpha, sequence (P27986 whole entry partner): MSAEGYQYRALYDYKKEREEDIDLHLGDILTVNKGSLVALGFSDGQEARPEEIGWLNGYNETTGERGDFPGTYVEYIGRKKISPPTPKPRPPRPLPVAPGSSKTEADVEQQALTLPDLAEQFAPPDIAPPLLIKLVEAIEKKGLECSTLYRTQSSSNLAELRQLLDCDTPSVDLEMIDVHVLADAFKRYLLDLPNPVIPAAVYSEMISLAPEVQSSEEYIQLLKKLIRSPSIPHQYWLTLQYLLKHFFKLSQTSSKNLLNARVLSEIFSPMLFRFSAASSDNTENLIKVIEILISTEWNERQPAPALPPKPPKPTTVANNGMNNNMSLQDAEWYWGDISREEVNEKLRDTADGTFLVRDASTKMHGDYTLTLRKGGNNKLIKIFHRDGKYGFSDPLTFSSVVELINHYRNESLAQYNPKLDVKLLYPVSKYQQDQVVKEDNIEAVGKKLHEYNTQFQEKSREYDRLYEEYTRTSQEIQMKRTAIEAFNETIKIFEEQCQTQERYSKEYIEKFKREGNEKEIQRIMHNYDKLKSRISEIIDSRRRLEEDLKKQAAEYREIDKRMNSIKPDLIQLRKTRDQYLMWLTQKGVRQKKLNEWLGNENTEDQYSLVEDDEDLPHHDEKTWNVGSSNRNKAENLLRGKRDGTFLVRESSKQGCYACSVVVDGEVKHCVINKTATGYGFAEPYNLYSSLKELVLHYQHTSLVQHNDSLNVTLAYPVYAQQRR
PI3Kbeta, sequence (P42338 whole entry): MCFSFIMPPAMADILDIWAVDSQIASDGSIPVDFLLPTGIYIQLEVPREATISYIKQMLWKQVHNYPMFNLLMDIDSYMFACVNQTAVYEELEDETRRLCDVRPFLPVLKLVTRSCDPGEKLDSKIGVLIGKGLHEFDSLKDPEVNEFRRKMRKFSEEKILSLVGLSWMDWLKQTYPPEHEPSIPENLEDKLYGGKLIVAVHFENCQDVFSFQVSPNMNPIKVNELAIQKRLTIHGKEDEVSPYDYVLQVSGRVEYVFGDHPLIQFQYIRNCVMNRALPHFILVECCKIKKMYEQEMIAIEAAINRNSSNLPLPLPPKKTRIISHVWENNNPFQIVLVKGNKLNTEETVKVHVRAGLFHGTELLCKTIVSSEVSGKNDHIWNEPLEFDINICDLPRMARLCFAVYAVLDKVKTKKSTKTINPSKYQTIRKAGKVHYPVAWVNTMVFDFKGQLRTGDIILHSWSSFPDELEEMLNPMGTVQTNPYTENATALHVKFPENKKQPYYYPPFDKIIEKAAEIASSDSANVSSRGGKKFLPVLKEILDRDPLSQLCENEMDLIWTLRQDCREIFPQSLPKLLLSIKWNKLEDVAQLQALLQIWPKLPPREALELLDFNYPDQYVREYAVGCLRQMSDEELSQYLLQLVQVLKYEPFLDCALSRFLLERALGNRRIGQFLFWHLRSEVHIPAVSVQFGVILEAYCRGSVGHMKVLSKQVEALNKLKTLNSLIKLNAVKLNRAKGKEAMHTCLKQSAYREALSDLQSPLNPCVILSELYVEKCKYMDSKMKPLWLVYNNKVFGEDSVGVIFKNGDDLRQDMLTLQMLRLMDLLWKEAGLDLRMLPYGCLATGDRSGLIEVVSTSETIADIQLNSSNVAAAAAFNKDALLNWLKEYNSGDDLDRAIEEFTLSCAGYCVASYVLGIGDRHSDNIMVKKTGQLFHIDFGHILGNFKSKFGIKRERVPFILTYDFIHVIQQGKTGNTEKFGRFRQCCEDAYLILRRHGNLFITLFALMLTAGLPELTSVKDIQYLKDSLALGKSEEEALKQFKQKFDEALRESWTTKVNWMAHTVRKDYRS
PI3Kbeta, sequence (P27986 whole entry partner): as the sequence (P27986 whole entry partner) above

What is called IC50 is the concentration at which inhibition is half-maximal. On DNA-PK protein complex, `Cn1cc(-c2cncc(-c3cnc4ccccc4c3)c2)n(-c2ccc(C(C)(C)C#N)cc2)c1=O` [Example A2, 2-Methyl-2-{4-[3-methyl-2-oxo-5-(5-quinolin-3-ylpyridin-3-yl)-2,3-dihydroimidazol-1-yl]phenyl}propionitrile] returned an IC50 of 0.1 to 10 µM.

In the case of `Cn1cc(-c2cc(-c3cnc4c(ccn4C)c3)ccn2)n(-c2ccc(C(C)(C)C#N)cc2)c1=O` [Example A54, 2-Methyl-2-(4-{3-methyl-5-[4-(1-methyl-1H-pyrrolo[2,3-b]pyridin-5-yl)pyridin-2-yl]-2-oxo-2,3-dihydroimidazol-1-yl}phenyl)propionitrile], the half-inhibitory concentration (IC50) in experiment [1] fell in the range of 0.1 to 10 µM; on DNA-PK protein complex, 0.0001 to 0.1 µM; on PI3Kalpha, 0.1 to 10 µM; on PI3Kbeta it was 0.1 to 10 µM.

`CC(=O)Nc1ncc(-c2ccnc(-c3cn(C)c(=O)n3-c3cccc(C#N)c3)c2)cc1C(F)(F)F` [Example A68, N-{2′-[3-(3-Cyanophenyl)-1-methyl-2-oxo-2,3-dihydro-1H-imidazol-4-yl]-5-trifluoromethyl-[3,4′]bipyridinyl-6-yl}acetamide]: the IC50 in experiment [1] is 0.1 to 10 µM; on DNA-PK protein complex, 0.1 to 10 µM; on PI3Kalpha it was 0.1 to 10 µM; at PI3Kbeta it was more than 10 µM.

With `Cn1cc(-c2cc(-c3cnc(N)c(C#N)n3)ccn2)n(-c2ccc(C(C)(C)C#N)cc2)c1=O` [Example A70, 3-Amino-6-(2-{3-[4-(cyanodimethylmethyl)phenyl]-1-methyl-2-oxo-2,3-dihydro-1H-imidazol-4-yl}pyridin-4-yl)pyrazine-2-carbonitrile], the IC50 (in experiment [1]; on DNA-PK protein complex; at PI3Kalpha; on PI3Kbeta) was 0.1 to 10 µM each time.

Take `Cn1cc(-c2cc(-c3cnc4[nH]ccc4n3)ccn2)n(-c2ccc(C(C)(C)C#N)cc2)c1=O` [Example A78, 2-Methyl-2-(4-{3-methyl-2-oxo-5-[4-(5H-pyrrolo[2,3-b]pyrazin-2-yl)pyridin-2-yl]-2,3-dihydroimidazol-1-yl}phenyl)propionitrile]: the IC50 (in experiment [1]; on DNA-PK protein complex; at PI3Kalpha; on PI3Kbeta) was 0.1 to 10 µM each time.

On to `Cn1cc(-c2cc(-c3cnc4nccnc4c3)ccn2)n(-c2ccc(C(C)(C)C#N)cc2)c1=O` [Example A81, 2-Methyl-2-{4-[3-methyl-2-oxo-5-(4-pyrido[2,3-b]pyrazin-7-ylpyridin-2-yl)-2,3-dihydroimidazol-1-yl]phenyl}propionitrile], for which the IC50 in experiment [1] was more than 10 µM; at DNA-PK protein complex, 0.0001 to 0.1 µM; at PI3Kalpha, 0.1 to 10 µM; on PI3Kbeta it was 0.1 to 10 µM.

Regarding `CN1CCN(c2ccc(-n3c(-c4cc(-c5cnc(N)c(C(F)(F)F)c5)ccn4)cn(C)c3=O)cc2C#N)CC1` [Example A82, 5-[5-(6-Amino-5-trifluoromethyl-[3,4′]bipyridinyl-2′-yl)-3-methyl-2-oxo-2,3-dihydroimidazol-1-yl]-2-(4-methylpiperazin-1-yl)benzonitrile], the half-maximal inhibitory concentration (IC50) in experiment [1] lay within 0.1 to 10 µM; against DNA-PK protein complex, 0.0001 to 0.1 µM; on PI3Kalpha it was 0.1 to 10 µM; at PI3Kbeta, 0.1 to 10 µM.

`CNCc1ccc(-c2ccnc(-c3cn(C)c(=O)n3-c3ccc(C(C)(C)C#N)cc3)c2)cn1` [Example A95, 2-Methyl-2-{4-[3-methyl-5-(6-methylaminomethyl-[3,4′]bipyridinyl-2′-yl)-2-oxo-2,3-dihydroimidazol-1-yl]phenyl}propionitrile]: the IC50 is more than 10 µM in experiment [1], 0.1 to 10 µM at DNA-PK protein complex, more than 10 µM on PI3Kalpha and more than 10 µM on PI3Kbeta.

In the case of `Cn1cc(-c2cc(-c3c[nH]c4ncccc34)ccn2)n(-c2ccc(C(C)(C)C#N)cc2)c1=O` [Example A100, 2-Methyl-2-(4-{3-methyl-2-oxo-5-[4-(1H-pyrrolo[2,3-b]pyridin-3-yl)pyridin-2-yl]-2,3-dihydroimidazol-1-yl}phenyl)propionitrile], the IC50 (in experiment [1]; against DNA-PK protein complex; on PI3Kalpha; on PI3Kbeta) was 0.1 to 10 µM throughout.

For `CN1CCN(c2ccc(-n3c(-c4cc(-c5ccc6[nH]ccc6c5)ccn4)cn(C)c3=O)cc2C(F)(F)F)CC1` [Example A102, 4-[4-(1H-Indol-5-yl)pyridin-2-yl]-1-methyl-3-[4-(4-methylpiperazin-1-yl)-3-trifluoromethylphenyl]-1,3-dihydroimidazol-2-one], the IC50 (in experiment [1]; against DNA-PK protein complex; on PI3Kalpha) was 0.1 to 10 µM throughout.

Regarding `CN1CCN(c2ccc(-n3c(-c4cc(-c5cnc(N)c(C(F)(F)F)c5)ccn4)cn(C)c3=O)cc2C(F)(F)F)CC1` [Example A103, 4-(6-Amino-5-trifluoromethyl-[3,4′]bipyridinyl-2′-yl)-1-methyl-3-[4-(4-methyl-piperazin-1-yl)-3-trifluoromethylphenyl]-1,3-dihydroimidazol-2-one], the IC50 (in experiment [1]; at DNA-PK protein complex; on PI3Kalpha; on PI3Kbeta) was 0.1 to 10 µM in each case.

`Cc1cc2cc(-c3ccnc(-c4cn(C)c(=O)n4-c4cccc(Oc5ccccc5)c4)c3)cnc2[nH]1` [Example A104, 1-Methyl-4-[4-(2-methyl-1H-pyrrolo[2,3-b]pyridin-5-yl)pyridin-2-yl]-3-(3-phenoxy-phenyl)-1,3-dihydroimidazol-2-one]: the IC50 in experiment [1] fell in the range of 0.1 to 10 µM; at DNA-PK protein complex it was 0.0001 to 0.1 µM; at PI3Kalpha, 0.1 to 10 µM.

For `Cn1cc(-c2cc(-c3cnc4[nH]ccc4c3)ccn2)n(-c2ccc(N3CCN(Cc4cccnc4)CC3)c(C(F)(F)F)c2)c1=O` [Example A106, 1-Methyl-3-[4-(4-pyridin-3-ylmethylpiperazin-1-yl)-3-trifluoromethylphenyl]-4-[4-(1H-pyrrolo[2,3-b]pyridin-5-yl)pyridin-2-yl]-1,3-dihydroimidazol-2-one], the figures for the IC50 (in experiment [1]; on DNA-PK protein complex) were 0.0001 to 0.1 µM and 0.1 to 10 µM, respectively.

Turning to `Cn1cc(-c2cc(-c3cc(F)c(N)c(C(F)(F)F)c3)ccn2)n(-c2ccc(C(C)(C)C#N)cc2)c1=O` [Example A107, 2-(4-{5-[4-(4-Amino-3-fluoro-5-trifluoromethylphenyl)pyridin-2-yl]-3-methyl-2-oxo-2,3-dihydroimidazol-1-yl}phenyl)-2-methylpropionitrile], the half-inhibitory concentration (IC50) lay within 0.1 to 10 µM in experiment [1] and 0.0001 to 0.1 µM against DNA-PK protein complex.

As for `COc1ccc(Cn2c(-c3cc(-c4cnc(NC(C)=O)c(C(F)(F)F)c4)ccn3)cn(C)c2=O)cc1` [Example A111, N-{2′-[3-(4-Methoxybenzyl)-1-methyl-2-oxo-2,3-dihydro-1H-imidazol-4-yl]-5-trifluoromethyl-[3,4′]bipyridinyl-6-yl}acetamide], the IC50 (in experiment [1]; at DNA-PK protein complex; at PI3Kalpha; at PI3Kbeta) was more than 10 µM each time.
